Where two headings read alike, the source gives them in different places.
Test: In vivo pharmacokinetic study
Parameters: species or system CD-1 mice
Conditions: for Plasma concentration (mean): BLOQ = 0.5 ng/mL; for MRT inf: read-out: MRTInf_obs
Method: Male CD-1 mice (approximately 6–8 weeks old, weighing 20–25 g, supplied by Vital River, Beijing, China) were used for the pharmacokinetic studies. Each mouse (n = 2) received either a bolus intravenous injection via the tail vein or oral gavage administration of the test compound. The formulation consisted of 20% HP-b-CD in PBS (pH 7.4), administered at a dose level of 10 mg/kg. The intravenous dose volume was 5 mL/kg, while the oral dose volume was 10 mL/kg. […] At the end of the study, the mice were euthanized by the inhalation of rising carbon dioxide concentrations. Samples were centrifuged at 4000× g for 5 min at 4 °C to obtain plasma. The plasma samples were stored at −75 ± 15 °C before analysis. Plasma samples were analyzed using the LC/MS/MS method. WinNonlin (PhoenixTM, version 8.3) software was employed for pharmacokinetic analysis calculations. The experimental details are reported in the Supporting Information. […]
Snap Shot PK of 45 in CD1-Mice
Formulations IV 20% HP-b-CD in PBS
(1 picture or pasted object on this page, not shown here)
Dosing Solutions: IV 2 mg/mL
IV&PO Plasma: 0 .5, 1, 3, and 5 h
Blood Sampling @ post dose
Mobile Phase A 5% Acetonitrile in Water (0.1%Formic acid)
Quantification Internal Standard Method
10 uL of plasma sample + 5 uL of blank solution +
200 uL of acetonitrile for PPE (protein precipitation
1. BLOQ = 0.5 ng/mL for plasma
3. PK parameters were estimated by non-compartmental model using WinNonlin 8.3
4. The bioavailability (F%) was calculated as following: […]

[1] = male, CD-1, mouse, plasma, CD1 mice, IV 10 mg/kg
[2] = male, CD-1, mouse, plasma, CD1 mice, PO 10 mg/kg
[3] = male, CD-1, mouse, plasma, IV 10 mg/kg
[4] = male, CD-1, mouse, plasma, PO 10 mg/kg
[5] = male, CD-1, mouse, CD1 mice, IV 10 mg/kg, plasma

For CC12CCC(=O)C=C1CCCC2n1cc(-c2ccccc2)nn1 (centres unmarked) [Compound 45, 4a-Methyl-5-(4-phenyl-1H-1,2,3-triazol-1-yl)-4,4a,5,6,7,8-hexahydronaphthalen-2(3H)-one], the AUC_%Extrap_obs (CD1 mice, IV 10 mg/kg) was 0.250%, the AUClast/D (CD1 mice, IV 10 mg/kg) was 55.9 kg·ng·h/mL/mg and the Vss_obs (CD1 mice, IV 10 mg/kg (supplement)) was 1.10 L/kg. For the same compound, the AUC_%Extrap_obs (CD1 mice, PO 10 mg/kg) was 3.43%, the AUClast/D (CD1 mice, PO 10 mg/kg) was 7.43 kg·ng·h/mL/mg and the “F% (oral bioavailability)” value (CD1 mice, PO 10 mg/kg, 10 mg/kg) was 13.7%. The “Plasma concentration (mean)” value (IV 10 mg/kg, 3 h) was “BLOQ”, the “Plasma concentration (mean)” value (IV 10 mg/kg, 5 h) was “BLOQ” and the bioavailability (male, CD-1, mouse, plasma, po, 10 mg/kg, CD1 mice, PO 10 mg/kg, read-out: F% (oral bioavailability)) was 14%. The AUC(0-inf) [1] was 561 ng·h/mL, the AUC(0-t) [1] was 559 ng·h/mL and the half-life [1] was 7.5 min. The Vd (male, CD-1, mouse, plasma, CD1 mice, IV 10 mg/kg (Table 5), read-out: Vss) was 1.1 L/kg, the MRT inf [1] was 3.7 min and the AUC(0-inf) [2] was 77 ng·h/mL. The AUC(0-t) [2] was 74.3 ng·h/mL, the Tmax [2] was 30 min and the half-life [2] was 64.2 min. For the same compound, the MRT inf [2] was 67.8 min, the concentration at 0.5 h [3] was 124 ng/mL and the concentration at 1 h [3] was 7.76 ng/mL. It also gave a concentration at 0.5 h [4] of 79.7 ng/mL, a concentration at 1 h [4] of 22.8 ng/mL and a concentration at 3 h (male, CD-1, mouse, plasma, PO 10 mg/kg, 3 h) of 2.14 ng/mL. For the same compound, the concentration at 5 h (male, CD-1, mouse, plasma, PO 10 mg/kg, 5 h) was 1.71 ng/mL, the clearance (male, CD-1, mouse, plasma, mice, intravenous 10 mg/kg, read-out: clearance rate) was 297 mL/min/kg and the C0 [5] was 1980 ng/mL. For the same compound, the Cmax [5] was 124 ng/mL and the Cmax (male, CD-1, mouse, CD1 mice, PO 10 mg/kg, plasma) was 79.7 ng/mL.

— paper PMC12192727, “Strategies to Develop Na,K-ATPase-α4 Inhibitors as Male Contraceptives” (International Journal of Molecular Sciences, 2025)
